Values joined by “and” are separate entries in the source; they are usually repeats but may differ in a detail not shown here. Identical values can stand only once.
Key:
[1] = Brain penetration of oral 3-SPA in male SD rats (brain, CSF, plasma); format: in vivo, Sprague-Dawley rats; conditions: oral 30 mg/kg
Protocol: A separate group of animals was dosed orally at 30 mg/kg and terminal brain, CSF and plasma samples were collected at 1, 2, 6, and 24 hr (3 animals for each time point) for bioanalyses of 3-SPA in brain and CSF, and to estimate brain penetration relative to plasma concentrations. The in-life study was performed at Agilux Laboratories (Worcester, MA) following quality standards in line with Good Laboratory Practice. Bioanalyses of rat plasma, CSF and brain was preformed using LC-MS/MS at Nextcea. Prior to processing rat brains for bioanalysis, the brains were perfused to remove pooled blood. Pharmacokinetic data analyses were conducted using Winnonlin Professional v5.0.1 (Pharsight, Mountain View, CA).
The plasma concentration of a single dose of 3-SPA, dissolved in saline as a clear solution, administered orally and intravenously to rats at a dose level of 30 mg/kg and 10 mg/kg, respectively, are shown in FIG. 9. Brain, CSF and corresponding plasma levels after a single oral dose of dose of 30 mg/kg of 3-SPA at 1, 2, 6, and 24 hr are shown in FIG. 10. Mean PK curves were used for calculation of pharmacokinetic parameters.

[2] = target: T1, recombinant human Aβ42 peptide (Homo sapiens, UniProt P05067); assay: Ion mobility mass spectrometry (IMS MS) anti-Aβ42 oligomer activity; format: biochemical; conditions: for inhibition of formation of Aβ42 oligomers: after 24 hours in vitro
T1 construct: recombinant human Aβ42 peptide; purchased BioLegend 843801
Protocol: The conditions used for mass spectrometry, using a Waters Synapt G2-S, were as follows: positive polarity in sensitivity mode, capillary=2.5 kV, nebulizer=2 mbar, source temperature=80° C., desolvation temperature=60° C., sample cone setting=35 V, source offset setting=60 V, and mass range=500 to 4000 m/z. These conditions were maintained throughout the study to ensure consistency of the data and to avoid influencing the detection of oligomers due to preferential ionization conditions.
Samples were directly infused into the mass spectrometer at a flow rate of 10 μL/min using a Protea PM-1000 Syringe Pump and Hamilton 1 mL Syringe. The data acquisition of the amyloid peptide was performed using a Waters Synapt G2-S quadrupole time of flight mass spectrometer (Q-TOF MS) with traveling wave ion mobility (Waters Corp., Milford, MA). The data were acquired using the systems sensitivity mode to allow for the detection of the less abundant oligomers. Samples were infused at room temperature. The IMS MS studies were conducted at Protea, Inc. (Morgantown, WV).
1 mg of recombinant human Aβ42 peptide from BioLegend (99% purity, cat #843801) was reconstituted in 200 μL of Fisher Optima LC/MS grade water (cat #W6-1) and vortexed vigorously for 2 minutes to solubilize the peptide creating a 5 mg/mL solution. Samples were then diluted to a final concentration of 22 pmol/μL prior to incubation. The sample mixtures were then incubated at room temperature for 0, 4 and 24 hours. After the acquisition of incubated samples was completed, the raw data were analyzed using the Waters MassLynx v2.4 suite with DriftScover v2.7 to visualize drift times for the peptide.
Aβ42 species characterization using IMS MS was performed by direct infusion at 22 pmol/μL in water. The peptide was prepared in water to maintain the native state conformation of the peptide and ion mobility data acquisition was performed to detect and characterize the conformational changes of the native state monomer and any oligomers that may have formed during the incubation.
The data acquisition for Aβ42 peptide was performed using a Waters Synapt G2-S quadrupole time of flight mass spectrometer (Q-TOF MS) with traveling wave ion mobility (Waters Corp., Milford, MA). The data were acquired using the systems sensitivity mode to allow for the detection of the less abundant oligomers. Samples were infused at room temperature as above.
1 mg of 3-SPA was reconstituted in 1 mL of Fisher Optima LC/MS grade water (cat #W6-1) and vortexed vigorously for 2 minutes until completely dissolved. The sample was then diluted to create 220 pmol/μL, and […] solutions to perform a 100-fold, and 1,000-fold molar excess for the binding experiments with Aβ42 peptide. […]

T1 sequence (P05067 672-713 limits assumed): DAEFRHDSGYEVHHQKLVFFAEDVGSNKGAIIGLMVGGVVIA

Brain/Plasma (AUC %) [1] | Aβ42 oligomer species detected (not inhibited) ([2]; 4 hr incubation, Aβ42:compound 1:1000) | Aβ42 oligomer species detected (not inhibited) ([2]; 24 hours incubation, 1,000-fold excess of compound) | Compound | inhibition of formation of Aβ42 oligomers [2]
25% and 25.3% | dimers, trimers and pentamers | Only pentamers were detected | O=C(O)CCS(=O)(=O)O [Compound 3-SPA, 3-sulfopropanoic acid] | Near complete prevention of formation of Aβ42 oligomers except for pentamers
 |  |  | NCCCS(=O)(=O)O [Tramiprosate, 3-amino-1-propanesulfonic acid, reference compound] | complete inhibition
